As a reminder, the inhibition is the share of the control response that was lost under treatment. In general, Ki refers to the dissociation constant of the complex between target and ligand, obtained from inhibition or displacement. The low end stands for a stronger hold on the target, the high end for a looser hold on the target.

Consider 19 molecules from ChEMBL document CHEMBL2413029, “Rapid modifications of N-substitution in iminosugars: development of new β-glucocerebrosidase inhibitors and pharmacological chaperones for Gaucher disease” (Bioorg Med Chem, 2013).

Numbering of substitutions follows the chain as printed. Active and inactive are the calls of the source. The calls are words filed in the database; no cut-off is given here.

For experiment [1], the target named is T1, Lysosomal acid glucosylceramidase (Homo sapiens) (UniProt P04062).
T1 sequence (whole entry): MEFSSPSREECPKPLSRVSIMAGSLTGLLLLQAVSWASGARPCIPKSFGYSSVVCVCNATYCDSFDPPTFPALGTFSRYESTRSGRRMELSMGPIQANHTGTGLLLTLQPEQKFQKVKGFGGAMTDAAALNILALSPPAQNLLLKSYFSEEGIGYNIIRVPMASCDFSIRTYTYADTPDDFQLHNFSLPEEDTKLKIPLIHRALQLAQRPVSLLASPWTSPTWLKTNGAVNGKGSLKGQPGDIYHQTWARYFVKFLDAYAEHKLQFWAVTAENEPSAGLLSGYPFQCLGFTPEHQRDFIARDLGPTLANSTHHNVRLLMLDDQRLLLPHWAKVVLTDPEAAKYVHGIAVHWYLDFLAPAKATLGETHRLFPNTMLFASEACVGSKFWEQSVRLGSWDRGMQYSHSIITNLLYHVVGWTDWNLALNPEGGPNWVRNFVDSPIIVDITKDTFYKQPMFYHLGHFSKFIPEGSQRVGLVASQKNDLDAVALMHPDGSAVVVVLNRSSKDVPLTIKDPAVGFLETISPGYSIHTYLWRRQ
As to the kind of experiment: Inhibition of human beta-glucocerebrosidase at 20 uM by fluorescence spectrophotometry.

The target of experiment [2] is T2, Lysosomal acid glucosylceramidase (Homo sapiens, UniProt P04062).
T2 sequence (P04062 whole entry): T1 sequence (whole entry)
Put plainly: Non-competitive inhibition of human beta-glucocerebrosidase by Lineweaver-Burk double reciprocal plot method.

For experiment [3], the system named is T3, Lysosomal acid glucosylceramidase (Homo sapiens), P04062 [N409S].
T3 sequence (whole entry): T1 sequence (whole entry) with N409S
Put plainly: Induction of beta-glucocerebrosidase N370S mutant in human GM00372 cells using 4-methylumbelliferyl-beta-D-glucopyranoside as substrate at 25 uM by fluorescence spectrophotometry relative to untreated control. The experiment is classed as cell-based.

Experiment [4] has the same test system. Put plainly: Induction of beta-glucocerebrosidase N370S mutant in human GM00372 cells using 4-methylumbelliferyl-beta-D-glucopyranoside as substrate at 12.5 uM by fluorescence spectrophotometry relative to untreated control. The experiment is classed as cell-based.
Experiment [5] has as its target T2, Lysosomal acid glucosylceramidase. Put plainly: Competitive inhibition of human beta-glucocerebrosidase by Lineweaver-Burk double reciprocal plot method.
The target of experiment [6] is Lysosomal alpha-glucosidase (Homo sapiens) (UniProt P10253). As to the kind of experiment: Induction of alpha-glucosidase in human GM00372 cells using 4-methylumbelliferyl alpha-D-glucoside as substrate at 1.5 uM after 4 days by fluorescence spectrophotometry relative to untreated control. The format is cell-based.
For experiment [7] the target is unchanged. Put plainly: Induction of alpha-glucosidase in human GM00372 cells using 4-methylumbelliferyl alpha-D-glucoside as substrate at <6.25 uM after 4 days by fluorescence spectrophotometry relative to untreated control. The format is cell-based.
The test system of experiment [8] is T3, Lysosomal acid glucosylceramidase (Homo sapiens), P04062 [N409S]. As to the kind of experiment: Induction of beta-glucocerebrosidase N370S mutant in human GM00372 cells using 4-methylumbelliferyl-beta-D-glucopyranoside as substrate at 50 uM by fluorescence spectrophotometry relative to untreated control. The format is cell-based.
The target of experiment [9] is Lysosomal alpha-glucosidase (Homo sapiens) (UniProt P10253). Put plainly: Induction of alpha-glucosidase in human GM00372 cells using 4-methylumbelliferyl alpha-D-glucoside as substrate at 20 to 100 uM after 4 days by fluorescence spectrophotometry relative to untreated control. The experiment is classed as cell-based.
Experiment [10] deals with T3, Lysosomal acid glucosylceramidase (Homo sapiens), P04062 [N409S]. Put plainly: Induction of beta-glucocerebrosidase N370S mutant in human GM00372 cells using 4-methylumbelliferyl-beta-D-glucopyranoside as substrate at 6.2 uM by fluorescence spectrophotometry relative to untreated control. The format is cell-based.
Experiment [11] shares this test system. As to the kind of experiment: Induction of beta-glucocerebrosidase N370S mutant in human GM00372 cells using 4-methylumbelliferyl-beta-D-glucopyranoside as substrate at 1.5 uM by fluorescence spectrophotometry relative to untreated control. The experiment is classed as cell-based.
Experiment [12] has the same test system. As to the kind of experiment: Induction of beta-glucocerebrosidase N370S mutant trafficking from endoplasmic reticulum to lysosome in human GM00372 cells at 5 uM by immunocytochemistry. The experiment is classed as cell-based.
Experiment [13] shares this test system. Put plainly: Induction of beta-glucocerebrosidase N370S mutant in human GM00372 cells using 4-methylumbelliferyl-beta-D-glucopyranoside as substrate at 625 nM by fluorescence spectrophotometry relative to untreated control. The format is cell-based.
Experiment [14] addresses Lysosomal alpha-glucosidase (Homo sapiens) (UniProt P10253). As to the kind of experiment: Induction of alpha-glucosidase in human GM00372 cells using 4-methylumbelliferyl alpha-D-glucoside as substrate at 25 uM after 4 days by fluorescence spectrophotometry relative to untreated control. The experiment is classed as cell-based.
Experiment [15] shares this target. As to the kind of experiment: Induction of alpha-glucosidase in human GM00372 cells using 4-methylumbelliferyl alpha-D-glucoside as substrate at 6.2 uM after 4 days by fluorescence spectrophotometry relative to untreated control. The format is cell-based.
The subject of experiment [16] is T3, Lysosomal acid glucosylceramidase (Homo sapiens), P04062 [N409S]. As to the kind of experiment: Induction of beta-glucocerebrosidase N370S mutant in human GM00372 cells using 4-methylumbelliferyl-beta-D-glucopyranoside as substrate at 3.1 uM by fluorescence spectrophotometry relative to untreated control. The experiment is classed as cell-based.

On to `O=C(CC1CCCCC1)NCCCCN1C[C@H](O)[C@@H](O)[C@H](O)[C@H]1CO`, for which the inhibition in experiment [1] was < 60%.

In the case of `O=C(NCCCCN1C[C@H](O)[C@@H](O)[C@H](O)[C@H]1CO)C1CC1`, the inhibition in experiment [1] is < 60%.

Consider `COc1ccc2c(c1)C(CC(=O)NCCCCN1C[C@H](O)[C@@H](O)[C@H](O)[C@H]1CO)CC2` (some centres not stated), for which, in [1], the inhibition result was “Active”. The same molecule had a Ki in [2] of 1100 nM. For the same molecule, in [3], the fold change (FC) is 1.5.

As for `O=C(NCCCCN1C[C@H](O)[C@@H](O)[C@H](O)[C@H]1CO)C1CCC1`, the inhibition in [1] was < 60%.

Turning to `O=C(CC1c2ccccc2-c2ccccc21)NCCCCN1C[C@H](O)[C@@H](O)[C@H](O)[C@H]1CO`, the fold change (FC) in experiment [4] amounted to 1.9; in [6], 0.3. The same molecule gave a Ki in experiment [5] of 400 nM. Besides, in [1], the inhibition entry is “Active”. The molecule also registered an Activity in experiment [7] of 60%.

Take `O=C(CC1c2ccccc2-c2ccccc21)NCCCCN1C[C@@H](O)[C@H](O)[C@H]1CO`: the fold change (FC) in experiment [8] was found to be 1.8. Also, the Activity in experiment [9] is < 10%.

Take `O=C(CC1CCCC1)NCCCCN1C[C@H](O)[C@@H](O)[C@H](O)[C@H]1CO`: in [1], the inhibition is < 60%.

Turning to `CC[C@@H]1[C@@H](O)[C@H](O)[C@@H](CO)N1CCCCNC(=O)CC1c2ccccc2-c2ccccc21`, the fold change (FC) in [4] was determined as 1.6.

On to `O=C(CC1c2ccccc2-c2ccccc21)NCCCCN1[C@H](CO)[C@@H](O)[C@H](O)[C@H]1CO`, for which, in experiment [10], the fold change (FC) came to 1.7. Also, the Activity in experiment [9] was < 10%.

`O=C(NCCCCN1C[C@H](O)[C@@H](O)[C@H](O)[C@H]1CO)C1CCCC1`: the inhibition in experiment [1] is < 60%.

Turning to `O=C(CCC1CCCC1)NCCCCN1C[C@H](O)[C@@H](O)[C@H](O)[C@H]1CO`, in experiment [1], the inhibition is < 60%.

Consider `O=C(CC(c1ccccc1)(c1ccccc1)c1ccccc1)NCCCCN1[C@H](CO)[C@@H](O)[C@H](O)[C@H]1CO`, for which the fold change (FC) in experiment [11] was determined as 2.2. The same molecule had a Ki in [5] of 4100 nM. Moreover, the outcome in experiment [12] was Active. Moreover, in experiment [9], the Activity was < 10%.

With `O=C(NCCCCN1C[C@H](O)[C@@H](O)[C@H](O)[C@H]1CO)C1CCc2ccccc2C1` (some centres not stated), the Ki in [5] came out at 1000 nM. Further, in experiment [1], the inhibition result was “Active”.

Turning to `O=C(CC(c1ccccc1)(c1ccccc1)c1ccccc1)NCCCCN1C[C@H](O)[C@@H](O)[C@H](O)[C@H]1CO`, the fold change (FC) in [13] worked out at 1.8; in experiment [6], 0.4. The same molecule had a Ki in experiment [5] of 400 nM. Also, the inhibition entry in experiment [1] was “Active”. This molecule also yielded an Activity in experiment [7] of 60%.

For `O=C(CC(c1ccccc1)(c1ccccc1)c1ccccc1)NCCCCN1C[C@@H](O)[C@H](O)[C@H]1CO`, the fold change (FC) in experiment [10] stood at 2.5; in experiment [14], 1.2.

As to `CCCCCCCCCN1C[C@H](O)[C@@H](O)[C@H](O)[C@H]1CO`, the fold change (FC) in [15] amounted to 0.4. The molecule also displayed an Activity in [7] of 60%.

On to `O=C(Cc1cc(C(F)(F)F)cc(C(F)(F)F)c1)NCCCCN1C[C@H](O)[C@@H](O)[C@H](O)[C@H]1CO`, for which the fold change (FC) came to 1.75 in experiment [4] and 0.4 in experiment [6]. Besides, in experiment [5], the Ki was found to be 71 nM. Also, the inhibition result in [1] was “Active”. In addition, the Activity in [7] amounted to 60%.

`O=C(COc1ccc(Cl)c(Cl)c1)NCCCCN1C[C@H](O)[C@@H](O)[C@H](O)[C@H]1CO` gave a Ki in [5] of 3200 nM. Also, the inhibition result in experiment [1] was “Active”.

With `CC[C@@H]1[C@@H](O)[C@H](O)[C@@H](CO)N1CCCCNC(=O)CC(c1ccccc1)(c1ccccc1)c1ccccc1`, in [16], the fold change (FC) was 1.4.
